In brackets after ≈: the same amount, converted by molar mass.
Molecular target: T1, mushroom tyrosinase
T1 construct: gene PPO3
Test: dopachrome absorbance at […] nm
Format: biochemical
Conditions: L-DOPA substrate (1.25 mM solution), 20 mM phosphate pH 6.8, 37 °C, 30 min

## O=C1O[C@H]([C@@H](O)CO)C(O)=C1O [ascorbic acid]
  IC50: 0.098 mg/mL (≈ 556 µM)

From article PMC8231118, “Evaluating the Antioxidants, Whitening and Antiaging Properties of Rice Protein Hydrolysates” (Molecules, 2021)
